Data: ChEMBL document CHEMBL4304803, “C-terminal modulators of heat shock protein of 90 kDa (HSP90): State of development and modes of action” (Bioorg Med Chem, 2019)

Target: Heat shock protein HSP90 (Homo sapiens, UniProt P07900+P08238)
Assay: Binding affinity to HSP90 CTD (unknown origin) by circular dichroism spectroscopy
Format: protein assay

- Kd: 27.4 µM
Structure (SMILES): CC[C@H](C)[C@@H](ONC(=O)[C@H](ONC(=O)[C@@H](Cc1ccccc1)ONC(=O)[C@@H](Cc1ccccc1)ONC(=O)OCc1ccccc1)[C@@H](C)CC)C(=O)NO[C@H](CC(C)C)C(=O)NO[C@H](CC(C)C)C(N)=O
